Reference: ChEMBL document CHEMBL1833945, “Synthesis and anticonvulsant activity of new N-Mannich bases derived from 5-cyclopropyl-5-phenyl- and 5-cyclopropyl-5-(4-chlorophenyl)-imidazolidine-2,4-diones” (Bioorg Med Chem, 2011)
Activity calls are given as the source filed them. No cut-off for these calls is given here.

Key:
Mus musculus [1] = experiment: Neurotoxicity in ip dosed CF1 albino mouse assessed as minimum dose required to cause impair in motor coordination after 4 hrs by rotarod test; format: toxicity, organism-based; settings: in vivo
Mus musculus [2] = experiment: Neurotoxicity in ip dosed CF1 albino mouse assessed as minimum dose required to cause impair in motor coordination after 0.5 hrs by rotarod test; format: toxicity, organism-based; settings: in vivo
Mus musculus [3] = experiment: Anticonvulsant activity in CF1 albino mouse assessed as protection against subcutaneous pentylenetetrazole-induced seizures at 300 mg/kg, […] after 4 hrs; format: functional, organism-based; parameters: dose 300 mg/kg
Mus musculus [4] = experiment: Anticonvulsant activity in CF1 albino mouse assessed as protection against maximal electroshock-induced seizures at 300 mg/kg, ip after 0.5 hrs; format: functional, organism-based; parameters: dose 300 mg/kg
Mus musculus [5] = experiment: Anticonvulsant activity in ip dosed CF1 albino mouse assessed as protection against maximal electroshock-induced seizures after 4 hrs; format: functional; settings: read-out: MED
[6] = Lipophilicity, log P of compound; format: physicochemical; settings: octanol/water
Mus musculus [7] = experiment: Anticonvulsant activity in ip dosed CF1 albino mouse assessed as protection against maximal electroshock-induced seizures after 0.5 hrs; format: functional; settings: read-out: MED
Mus musculus [8] = experiment: Toxicity in subcutaneous pentylenetetrazole-induced CF1 albino mouse assessed as myoclonic jerks at 100 mg/kg, ip after 0.5 hrs; format: organism-based; parameters: dose 100 mg/kg; settings: in vivo, sc
Mus musculus [9] = experiment: Toxicity in subcutaneous pentylenetetrazole-induced CF1 albino mouse assessed as myoclonic jerks at 100 mg/kg, ip after 4 hrs; format: organism-based; parameters: dose 100 mg/kg; settings: in vivo, sc
Mus musculus [10] = experiment: Neurotoxicity in CF1 albino mouse assessed as impair in motor coordination at 300 mg/kg, ip after 4 hrs by rotarod test; format: toxicity, organism-based; parameters: dose 300 mg/kg, route intraperitoneal; settings: in vivo
Mus musculus [11] = experiment: Neurotoxicity in CF1 albino mouse assessed as impair in motor coordination at 300 mg/kg, ip after 0.5 hrs by rotarod test; format: toxicity, organism-based; parameters: dose 300 mg/kg, route intraperitoneal; settings: in vivo
Mus musculus [12] = experiment: Anticonvulsant activity in ip dosed CF1 albino mouse assessed as protection against subcutaneous pentylenetetrazole-induced seizures after 0.5 hrs; format: functional; settings: read-out: MED
Rattus norvegicus [13] = experiment: Neurotoxicity in Sprague-Dawley albino rat assessed as motor impairment at 30 mg/kg, po after 4 hrs by rotarod test; format: toxicity, organism-based; parameters: dose 30 mg/kg, route oral; settings: in vivo
Rattus norvegicus [14] = experiment: Neurotoxicity in Sprague-Dawley albino rat assessed as motor impairment at 30 mg/kg, po after 2 hrs by rotarod test; format: toxicity, organism-based; parameters: dose 30 mg/kg, route oral; settings: in vivo
Rattus norvegicus [15] = experiment: Neurotoxicity in Sprague-Dawley albino rat assessed as motor impairment at 30 mg/kg, po after 1 hrs by rotarod test; format: toxicity, organism-based; parameters: dose 30 mg/kg, route oral; settings: in vivo
Rattus norvegicus [16] = experiment: Neurotoxicity in Sprague-Dawley albino rat assessed as motor impairment at 30 mg/kg, po after 0.5 hrs by rotarod test; format: toxicity, organism-based; parameters: dose 30 mg/kg, route oral; settings: in vivo
Rattus norvegicus [17] = experiment: Neurotoxicity in Sprague-Dawley albino rat assessed as motor impairment at 30 mg/kg, po after 0.25 hrs by rotarod test; format: toxicity, organism-based; parameters: dose 30 mg/kg, route oral; settings: in vivo
Rattus norvegicus [18] = experiment: Anticonvulsant activity in Sprague-Dawley albino rat assessed as protection against maximal electroshock-induced seizures at 30 mg/kg, po after 4 hrs; format: functional, organism-based; parameters: dose 30 mg/kg
Rattus norvegicus [19] = experiment: Anticonvulsant activity in Sprague-Dawley albino rat assessed as protection against maximal electroshock-induced seizures at 30 mg/kg, po after 0.5 hrs; format: functional, organism-based; parameters: dose 30 mg/kg
Rattus norvegicus [20] = experiment: Anticonvulsant activity in Sprague-Dawley albino rat assessed as protection against maximal electroshock-induced seizures at 30 mg/kg, po after 0.25 hrs; format: functional, organism-based; parameters: dose 30 mg/kg
Mus musculus [21] = experiment: Toxicity in subcutaneous pentylenetetrazole-induced CF1 albino mouse assessed as myoclonic jerks at 300 mg/kg, ip after 4 hrs; format: organism-based; parameters: dose 300 mg/kg; settings: in vivo, sc
Rattus norvegicus [22] = organism: Rattus norvegicus; experiment: Protective index, ratio of TD50 for neurotoxicity in Sprague-Dawley albino rat to ED50 for inhibition of maximal electroshock-induced seizures in Sprague-Dawley albino rat; format: functional
[23] = Neurotoxicity in oral dosed Sprague-Dawley albino rat assessed as motor impairment by rotarod test; format: toxicity, organism-based; settings: in vivo
Rattus norvegicus [24] = experiment: Anticonvulsant activity in po dosed Sprague-Dawley albino rat assessed as protection against maximal electroshock-induced seizures; format: functional
Rattus norvegicus [25] = experiment: Anticonvulsant activity in po dosed Sprague-Dawley albino rat assessed as time to peak effect; format: functional
Rattus norvegicus [26] = experiment: Anticonvulsant activity in Sprague-Dawley albino rat assessed as protection against subcutaneous pentylenetetrazole-induced seizures at 50 mg/kg, po after 0.25 hrs; format: functional, organism-based; parameters: dose 50 mg/kg
Mus musculus [27] = experiment: Anticonvulsant activity in CF1 albino mouse assessed as protection against electrically-induced seizure at 100 mg/kg, ip after 0.5 hrs by 6Hz psychomotor seizure test; format: functional, organism-based; parameters: dose 100 mg/kg
Mus musculus [28] = experiment: Anticonvulsant activity in CF1 albino mouse assessed as protection against electrically-induced seizure at 100 mg/kg, ip after 0.25 hrs by 6Hz psychomotor seizure test; format: functional, organism-based; parameters: dose 100 mg/kg
Rattus norvegicus [29] = experiment: Anticonvulsant activity in po dosed Sprague-Dawley albino rat assessed as protection against subcutaneous pentylenetetrazole-induced seizures; format: functional
Rattus norvegicus [30] = experiment: Neurotoxicity in Sprague-Dawley albino rat assessed as motor impairment at 50 mg/kg, po after 4 hrs by rotarod test; format: toxicity, organism-based; parameters: dose 50 mg/kg, route oral; settings: in vivo
Rattus norvegicus [31] = experiment: Neurotoxicity in Sprague-Dawley albino rat assessed as motor impairment at 50 mg/kg, po after 2 hrs by rotarod test; format: toxicity, organism-based; parameters: dose 50 mg/kg, route oral; settings: in vivo
Rattus norvegicus [32] = experiment: Neurotoxicity in Sprague-Dawley albino rat assessed as motor impairment at 50 mg/kg, po after 1 hrs by rotarod test; format: toxicity, organism-based; parameters: dose 50 mg/kg, route oral; settings: in vivo
Rattus norvegicus [33] = experiment: Neurotoxicity in Sprague-Dawley albino rat assessed as motor impairment at 50 mg/kg, po after 0.5 hrs by rotarod test; format: toxicity, organism-based; parameters: dose 50 mg/kg, route oral; settings: in vivo
Rattus norvegicus [34] = experiment: Neurotoxicity in Sprague-Dawley albino rat assessed as motor impairment at 50 mg/kg, po after 0.25 hrs by rotarod test; format: toxicity, organism-based; parameters: dose 50 mg/kg, route oral; settings: in vivo
Mus musculus [35] = experiment: Anticonvulsant activity in ip dosed CF1 albino mouse assessed as protection against subcutaneous pentylenetetrazole-induced seizures after 4 hrs; format: functional; settings: read-out: MED
Mus musculus [36] = experiment: Toxicity in subcutaneous pentylenetetrazole-induced CF1 albino mouse assessed as myoclonic jerks at 300 mg/kg, ip after 0.5 hrs; format: organism-based; parameters: dose 300 mg/kg; settings: in vivo, sc

| Compound | MTC (Mus musculus [1]) [mg/kg] | MTC (Mus musculus [2]) [mg/kg] | Activity (Mus musculus [3]) | Activity (Mus musculus [4]) | minimal effective dose (Mus musculus [5]) [mg/kg] | logP [6] | minimal effective dose (Mus musculus [7]) [mg/kg] | Activity (Mus musculus [10]) | Activity (Mus musculus [11]) | Activity (Rattus norvegicus [13]) | Activity (Rattus norvegicus [14]) | Activity (Rattus norvegicus [15]) | Activity (Rattus norvegicus [16]) | Activity (Rattus norvegicus [17]) | Activity (Rattus norvegicus [18]) | Activity (Rattus norvegicus [19]) | Activity (Rattus norvegicus [20]) | Activity (Mus musculus [21]) | TD50 [23] [mg/kg] | Time (Rattus norvegicus [25]) [h] | other results |
| --- | --- | --- | --- | --- | --- | --- | --- | --- | --- | --- | --- | --- | --- | --- | --- | --- | --- | --- | --- | --- | --- |
| O=C(OCc1ccccc1)N1CCN(CN2C(=O)NC(c3ccc(Cl)cc3)(C3CC3)C2=O)CC1 (stereo not drawn) | 300 | 300 | inactive | inactive | 100 | 3.65 |  |  |  |  |  |  |  |  |  |  |  |  |  |  |  |
| COCCN1CCN(CN2C(=O)NC(c3ccccc3)(C3CC3)C2=O)CC1 (stereo not drawn) | 30 | 30 |  |  | 100 | 1.46 | 100 |  |  |  |  |  |  |  |  |  |  |  |  |  | Activity (Mus musculus [8]): Toxic; Activity (Mus musculus [9]): Toxic |
| O=C1NC(c2ccccc2)(C2CC2)C(=O)N1CN1CCN(c2ccccc2)CC1 (stereo not drawn) |  |  | inactive | inactive | 100 |  |  | Non-toxic | Non-toxic |  |  |  |  |  |  |  |  |  |  |  | minimal effective dose (Mus musculus [12]): 100 mg/kg |
| O=C1NC(c2ccccc2)(C2CC2)C(=O)N1CN1CCc2ccccc2C1 (stereo not drawn) |  | 100 |  |  | 300 | 3.02 | 300 | Non-toxic |  | Non-toxic | Non-toxic | Non-toxic | Non-toxic | Non-toxic | Active | inactive | inactive | Toxic |  |  |  |
| O=C1NC(c2ccccc2)(C2CC2)C(=O)N1CN1CCN(CCc2ccccc2)CC1 (stereo not drawn) | 300 |  |  | inactive | 30 | 2.98 |  |  | Non-toxic | Non-toxic | Non-toxic | Non-toxic | Non-toxic | Non-toxic | Active | inactive | inactive | Toxic | > 100 | 4 | PI (Rattus norvegicus [22]): >5.86; ED50 (Rattus norvegicus [24]): 17.1 mg/kg |
| O=C1NC(c2ccccc2)(C2CC2)C(=O)N1CN1CCN(c2ccccc2F)CC1 (stereo not drawn) |  |  | inactive | inactive | 100 |  |  | Non-toxic | Non-toxic |  |  |  |  |  |  |  |  |  |  |  |  |
| O=C1NC(=O)C(c2ccc(Cl)cc2)(C2CC2)N1 (stereo not drawn) | 300 |  |  | inactive | 300 | 2.63 |  |  | Non-toxic |  |  |  |  |  |  |  |  |  | > 135 | 2 | Activity (Rattus norvegicus [26]): inactive; Activity (Mus musculus [27]): inactive; Activity (Mus musculus [28]): inactive; ED50 (Rattus norvegicus [29]): 85 mg/kg; Activity (Rattus norvegicus [30]): Non-toxic; Activity (Rattus norvegicus [31]): Non-toxic; Activity (Rattus norvegicus [32]): Non-toxic; Activity (Rattus norvegicus [33]): Non-toxic; Activity (Rattus norvegicus [34]): Non-toxic; minimal effective dose (Mus musculus [35]): 30 mg/kg; minimal effective dose (Mus musculus [12]): 300 mg/kg |
| O=C(OCc1ccccc1)N1CCN(CN2C(=O)NC(c3ccccc3)(C3CC3)C2=O)CC1 (stereo not drawn) |  |  |  |  | 100 | 2.92 | 300 | Non-toxic | Non-toxic | Non-toxic | Non-toxic | Non-toxic | Non-toxic | Non-toxic | Active | inactive | inactive | Toxic | > 60 | 6 | PI (Rattus norvegicus [22]): >5.98; ED50 (Rattus norvegicus [24]): 10 mg/kg; Activity (Mus musculus [36]): Toxic |
